# Data reported in ChEMBL document CHEMBL1158436, “In vitro inhibition of human erythrocyte glutathione reductase by some new organic nitrates” (Bioorg Med Chem Lett, 2009).
# Target: T1, Glutathione reductase, mitochondrial (Homo sapiens, UniProt P00390)
# T1 sequence (P00390 whole entry): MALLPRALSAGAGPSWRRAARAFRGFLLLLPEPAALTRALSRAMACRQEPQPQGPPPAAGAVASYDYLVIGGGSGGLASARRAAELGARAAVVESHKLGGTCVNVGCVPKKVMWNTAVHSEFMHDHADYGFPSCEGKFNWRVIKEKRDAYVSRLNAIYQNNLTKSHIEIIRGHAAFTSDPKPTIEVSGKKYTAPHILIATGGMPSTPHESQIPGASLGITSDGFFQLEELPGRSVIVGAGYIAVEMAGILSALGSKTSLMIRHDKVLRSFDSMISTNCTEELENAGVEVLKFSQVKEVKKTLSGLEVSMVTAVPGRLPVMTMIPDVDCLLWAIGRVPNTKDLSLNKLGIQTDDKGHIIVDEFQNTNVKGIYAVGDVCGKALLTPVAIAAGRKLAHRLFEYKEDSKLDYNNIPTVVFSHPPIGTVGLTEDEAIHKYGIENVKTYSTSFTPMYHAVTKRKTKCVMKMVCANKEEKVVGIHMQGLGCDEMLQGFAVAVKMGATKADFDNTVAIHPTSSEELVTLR
# Assay: Inhibition of human erythrocyte glutathione reductase
Compound,IC50 [µM],Ki [µM]
O=[N+]([O-])O[C@H]1CC2CCC1[C@@H]2O (stereo partly drawn),7.13,13.1
O=[N+]([O-])OC1CC2c3ccccc3C1C2O (stereo not drawn),10.3,18.8
O=[N+]([O-])O[C@@H]1CC2CCC1[C@@H]2O (stereo partly drawn),6.81,11.7
O=[N+]([O-])O[C@H]1CC/C=C\CC[C@@H]1O (racemic),29,44.3
O=[N+]([O-])O[C@H]1CC=CC[C@@H]1O (racemic),23,35.1
O=[N+]([O-])O[C@H]1CCCCCC[C@@H]1O,14.2,21.9
O=[N+]([O-])O[C@@H]1CC[C@H](Br)[C@@H]2CC[C@H]1O2,11,21.5
"O=[N+]([O-])O[C@@H](CO)c1ccccc1 (single isomer, unassigned)",16,25.6
O=[N+]([O-])O[C@H]1CCCC[C@@H]1O,21,43.7
